Source: patent publication US12497396B2, “Nitrogen-containing heterocyclic derivatives, method therefor and application therefor as inhibitors of KRAS G12C for the treatment of cancers” (SHANGHAI HANSOH BIOMEDICAL CO., LTD., priority 2019, dated 2025)

How the values were obtained:
[1] = tested on: Mia PaCa-2 cells (KRAS G12C mutant cell line); test: Inhibition of Mia PaCa-2 cell proliferation (CellTiter-Glo, 72 h); format: cell-based, human; settings: Homo sapiens
In short: (§1)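 Cells were seeded overnight at 37 °C, 5% CO2, then exposed to serially diluted compound (DMSO/medium) alongside a solvent control for 72 h. Viability was read by CellTiter-Glo luminescence, and IC50 was derived by nonlinear regression of inhibition rate against concentration.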

[2] = tested on: NCI-H358 cells (KRAS G12C mutant cell line); test: Inhibition of NCI-H358 cell proliferation (CellTiter-Glo, 72 h); format: cell-based, human; settings: Homo sapiens
In short: as §1

human KRAS G12C protein = target: T1, human KRAS G12C protein (Homo sapiens, UniProt P01116, G12C); test: Thermal shift: melting temperature of KRAS G12C protein; format: binding
T1 construct: purchased Beijing SinoBiological Co., Ltd. 12259-H07E2
In short: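 5.37 μM (final) human KRAS G12C in […] HEPES pH 7.5, 1 mM DTT, 150 mM NaCl, 5×SYPRO Orange, incubated 1 h at room temperature in the dark. Melt curve run from 25 to 95° C at 0.03° C/s. ΔTm = treated Tm minus DMSO control Tm.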

[3] = tested on: phosphorylated ERK in KRAS G12C mutant cells Mia PaCa-2; test: Inhibition of phosphorylated ERK level in Mia PaCa-2 cells (LANCE Ultra); format: cell-based; settings: Homo sapiens, 2 hours, read-out: Mia PaCa-2 pERK IC50
Text: As a preferred embodiment of the present disclosure, the method for detecting the inhibitory activity of phosphorylated ERK level is as follows: through cell culture, adding different concentrations of compound solutions to the cultured cells, continuing the culture for a period of time, lysing the cells, followed by centrifugation and […]; • further, the method of cell culture is: adjusting the cells to a suitable cell concentration with a complete medium, preferably the cell concentration is 1×10^6/mL, and spreading the cell suspension on a well plate for culture.
When Mia PaCa-2 cells were cultured to the appropriate fusion level, Mia PaCa-2 cells were collected, and the cell density was adjusted to 1×10^6/mL using complete culture medium, the cell suspension was spread on a 96-well plate, 50 μL per well, and placed adherent to the wall in a 37° C., 5% CO2 incubator overnight, compound solutions with different concentrations were prepared using DMSO and complete culture medium, a solvent control was set, the compound solution was added to a 96-well plate, 25 μL per well, and placed in a 37° C., 5% CO2 incubator for 2 hours of continuous culture, the supernatant was discarded from the cell culture plate, 50 μL of lysis solution was added to each well, and lysing was performed for 30 minutes by shaking at room temperature, then the mixture was centrifuged at 1000 rpm for 1 minute, 15 μL of supernatant was transferred to 384 well plate, 5 μL of detection mixture (Eu-labeled anti-ERK1/2 (T202-Y204) antibody with final concentration of 0.5 nM and ULight labeled anti-ERK1/2 antibody with final concentration of 5 nM) was added to each well, centrifuged at 1000 rpm for 1 minute and mixed uniformly, the reaction was carried out overnight at room temperature, the plate was read with BioTek Synergy H1, and the signal values was detected at 620 nm and 665 nm emission wavelengths by time-resolved fluorescence program.
The ratio of the signal values at 665 nm and 620 nm emission wavelength were calculated, and the ratio was used to calculate the inhibition rate, the concentration and the inhibition rate were fitted to a nonlinear regression curve using Graphpad Prism software, then the IC50 value was obtained.

**Q.** Which IC50 [1] does the source give for `C=CC(=O)N1CCN(c2nc(=O)n(-c3c(SC)ccnc3C(C)C)c3nc(-c4c(N)cccc4F)c(F)cc23)[C@@H](C)C1` [Embodiment 134, 4-((S)-4-acryloyl-2-methylpiperazin-1-yl)-7-(2-amino-6-fluorophenyl)-6-fluoro-1-(2-isopropyl-4-(methylthio)pyridin-3-yl) pyrido [2,3-d] pyrimidin-2 (1H)-one] here?
**A.** 30 nM

**Q.** And the IC50 [2]?
**A.** 23 nM

**Q.** What about the “Tm (° C.)” value (human KRAS G12C protein; KRAS G12C protein 5.37 μM with compound 10 μM, 1 hour incubation) of the same compound?
**A.** 64.4 °C

**Q.** What about the ΔTm at 10 µM (human KRAS G12C protein; compound 10 μM, Tm minus Tm of DMSO solvent control) of the same compound?
**A.** 15.8 °C

**Q.** What about the IC50 [3] of the same compound?
**A.** 30 nM
